{"source": "patent US5998368A", "about": "“Derivatives of structurally modified VIP and pharmaceutical compositions containing them” (Yeda Research and Development Co. Ltd., priority 1991, dated 1999)", "key": {"[1]": {"tested_on": "penile erection in normal male", "settings": "cited from earlier work"}, "[2]": {"tested_on": "penile reflexes in castrated rats", "test": "Penile reflexes (E2, cups) in castrated rats after transdermal application", "type": "in vivo, rat", "procedure": "(a) The ointment composition was: 31.2 μl 10% Sefsol 318™ (glyceryl monocaprylate), and either 0.24 mg stearoyl-VIP in 31.2 μl DMSO (1-2μl per animal) (SEFS in FIG. 1) or 0.24 rig stearoyl-Nle^17 -VIP in the above (SEFS* in FIG. 1).\n(b) For other analogs described hereinafter 10 μl of solution were used per animal containing 7 μg of active material in a vehicle containing 5% Sefsol and 20% isopropanol.\nIn a further set of experiments the effects of stearoyl-VIP compounded with Sefsol 318™ were compared with those of stearoyl-Nle^17 -VIP compounded with Sefsol 318™.\nIn a second type of biological experiments the effects of compositions containing other modified VIP conjugates compounded with Sefsol 318™ were tested.\nRats with reduced sexual potential due to castration were employed. Male rats (250-300 g, about three month old) were kept in a 12-hours light, 12-hours dark cycle. Experiments were always conducted within the dark period, 2-6 hours after the onset of darkness. Male rats were castrated and given partial testosterone replacement (4 μg/100 g body weight) in the form of daily injection for 14-21 consecutive days (the duration of the experiment). Experiments were conducted one week following surgery.\nA procedure was utilized that employed the technique that measures sexual reflexes in the penis, which enables direct evaluation of penile erection following transdermal administration of the drug. Successful reproduction depends, in large part, upon the precise execution of temporally organized, functionally related behavioural units. In these experiments, we concentrated on the final stages of the erection process (reddening of the penis accompanied by its distension and extension leading to complete erection) and monitored the latency time to the first E2 and first cup(^14).\nFor testing, each animal was restrained in a supine position with the anterior portion of its body enclosed in a loosely fitting cylinder (7 cm diam). After a belt was secured around the torso, the glans penis was extruded from its sheath and gently held perpendicular to the abdomen by a thin wooden applicator positioned at the posterior of the penis. The legs of the male were held by the observer and this position was maintained throughout the test period. The duration of the session was 45 minutes. The latencies and numbers of E2 and cups were recorded and plotted.\nAn E2 is defined as a complete erection which can be followed by cup in which the penile tip is turned into a cup-like structure, whereby the glands flare out such that the penis is wider in its distal portion than its base. This final stage requires E2 and is probably a pre-requisite for ejaculation (13). Using, all the parameters one can obtain a reliable measure of the sexual activity of the tested rat.\nSix to ten animals were tested in this paradigm for each variable. Control animals received ointment compositions without the modified VIP conjugate."}, "[3]": {"test": "Skin penetration and body distribution of 125I-labelled conjugates after topical application to the penis", "type": "in vivo", "description": "These experiments were divided into two groups. In the first group of experiments we performed a time course of the distribution of radioactively labelled stearoyl-Nle^17 -VIP (in Sefsol 318™), applied transdermally to the penis of the animals, in various organs of the body. In the second group of experiments we compared the penetration of radioactively labelled VIP, Nle^17 -VIP St-VIP and St-Nle^17 -VIP with Sefsol 318™ following transdermal application. Two to four animals were used for each data point. The derivatives were labelled with 1251 using the chloramine-T based method^(14).\nIn the first group of experiments, stearoyl-Nle^17 -VIP was radioactively labelled with I^125. Each animal received 2.2 million CPM, in 6μl of the radioactive material+ 26μl ointment (ointment No. 4 in Example 5). Two animals were used for each time point in two independent experiments. To avoid oral absorbance, the animal mouth was sealed. At indicated times following topical application, animals were sacrificed and duplicate tissue samples were removed, weighed and counted in a gamma counter. Tissues measured were: lungs (LU), heart (HE), kidneys (KI), liver (Li) and intestine (IN).\nIn the second group of experiments compositions of Sefsol 318™ and VIP, St-VIP, Nle^17 -VIP and St-Nle^17 -VIP were prepared. The experiments were performed as in FIG. 7 with the only difference that each animal received a 2.4 million CPM, 2-4 animals were utilized for each variable. Animals were sacrificed 30 minutes after the application of the drug."}, "Sprague Dawley rats [4]": {"tested_on": "Sprague Dawley rats", "test": "Single dose toxicity, intravenous (tail vein)", "type": "in vivo, rat", "settings": "for acute intravenous median lethal dose (LD50): with vehicle", "procedure": "The single dose toxicity of stearoyl-Nle^17 -VIP injected intravenously, into the tail vein, was investigated in 4 groups of six male and six female rates [Sprague Dawley (S.D.) strain, purchased from Levinstein, Yokneam, Israel).\nTest Groups constitution:\n2. Vehicle (Sefsol 5% + isopropanol 50%)\n3. Stcaroyl-Nle^17 -VIP 7 μg/rat + vehicle\n4. Stearyol-Nle^17 -VIP 7,000 μg/rat + vehicle"}, "[5]": {"test": "Stability of the test material", "type": "physicochemical"}, "Sprague Dawley rats [6]": {"tested_on": "Sprague Dawley rats", "test": "Repeated dose toxicity, topical, 13 weeks", "method": "The repeated dose toxicity of stearoyl-Nle^17 -VIP administered topically was investigated in 80 SPF (Specified pathogen free) rats divided into 4 groups of ten male and ten female Sprague Dawley (S.D.) strain rats purchased from Harlan, Olac, England.\nGroup 1: 7 μg stearoyl-Nle^17 -VIP+vehicle (1× dose)\nGroup 2: 700 μg stearoyl-Nle^17 -VIP+vehicle (100× dose)\nGroup 4: Vehicle only (5% Sefsol+20% isopropanol)"}, "[7]": {"settings": "Table 3, topical, 7 μg in 5% Sefsol and 20% isopropanol, castrated rats, 45 min session"}, "[8]": {"settings": "Group 3, 7 μg/rat + vehicle i.v."}, "[9]": {"settings": "daily topical 7, 700, 3500 μg, 13 weeks"}, "[10]": {"settings": "daily topical 7, 700, 3500 μg, 13 weeks, male and female rats"}}, "note": "Where two headings read alike, the source gives them in different places.", "data": [{"substance": "Vasoactive intestinal peptide (HSDAVFTDNYTRLRKQMAVKKYLNSILN) [VIP]", "values": [{"measurement": "penile response", "setting": "[1]; as little as 1 μg into the corpus cavernosum, coupled with sexual stimulation", "value": "facilitated full erection"}, {"measurement": "penile response", "setting": "[1]; up to 20 μg into the corpus cavernosum, without sexual stimulus", "value": "caused only slight swelling of the penis but not erection"}]}, {"substance": "stearoyl-norleucine^17 -VIP [St-Nle^17 -VIP]", "values": [{"measurement": "No. of E2", "setting": "[2]; [7]", "value": 9}, {"measurement": "No. of cups", "setting": "[2]; [7]", "value": 27}, {"measurement": "biologically active dose", "setting": "[2]; pharmacological experimentation, rat", "value": 7, "unit": "μg per rat"}, {"measurement": "latency to first E2", "setting": "[2]; topical, in Sefsol 318 ointment (SEFS*), castrated rats, 45 min session, FIG. 1", "value": "about 1 minute"}, {"measurement": "latency to first cup", "setting": "[2]; topical, in Sefsol 318 ointment (SEFS*), castrated rats, 45 min session, FIG. 2", "value": 10, "unit": "min"}, {"measurement": "number of E2 during the test period", "setting": "[2]; topical, in Sefsol 318 ointment, castrated rats, 45 min session, FIG. 3", "value": 34}, {"measurement": "number of cups", "setting": "[2]; topical, in Sefsol 318 ointment, castrated rats, 45 min session, FIG. 4", "value": 20}, {"measurement": "efficiency according to all the four parameters tested", "setting": "[2]; transdermal, Sefsol 318 composition, compared with stearoyl-VIP in Sefsol 318", "value": "more efficient"}, {"measurement": "disappearance from organs, time after administration", "setting": "[3]; 125I-labelled, topical in Sefsol 318, FIG. 7", "value": 2.5, "unit": "h"}, {"measurement": "peak deliveries to organs, time after administration", "setting": "[3]; 125I-labelled, topical in Sefsol 318, lungs, heart, kidneys, liver, intestine, FIG. 7", "value": "15 to 60", "unit": "min"}, {"measurement": "concentrations in kidney, liver and intestines", "setting": "[3]; 30 minutes after topical application in Sefsol 318, compared with VIP, Nle17-VIP, St-VIP, FIG. 8", "value": "highest concentrations"}, {"measurement": "mortality", "setting": "Sprague Dawley rats [4]; [8]", "value": "No mortality"}, {"measurement": "necrotic reaction at the site of injection (tail skin), share of animals", "setting": "Sprague Dawley rats [4]; [8]", "value": 58, "unit": "%"}, {"measurement": "necrotic reaction at the site of injection (tail skin), share of animals", "setting": "Sprague Dawley rats [4]; Group 4, 7,000 μg/rat + vehicle i.v.", "value": "all the animals"}, {"measurement": "mortality", "setting": "Sprague Dawley rats [4]; Group 4, 7,000 μg/rat + vehicle i.v., within 3 hours after administration", "value": "Seven rats (3 male and 4 female out of 12) died"}, {"measurement": "acute intravenous median lethal dose (LD50)", "setting": "Sprague Dawley rats [4]; combined males and females", "value": "< 7,000 μg"}, {"measurement": "acute intravenous median lethal dose (LD50)", "setting": "Sprague Dawley rats [4]; male rats", "value": "7,000 μg/male rat"}, {"measurement": "other side effects", "setting": "Sprague Dawley rats [4]; surviving rats of all groups", "value": "No other side effects"}, {"measurement": "body weight gain", "setting": "Sprague Dawley rats [4]; two weeks after i.v. dose, ANOVA versus vehicle control group", "value": "increased weight gain"}, {"measurement": "stability compared with stearoyl-VIP", "setting": "[5]", "value": "more stable"}, {"measurement": "Stability", "setting": "[5]; powder", "value": "for a year"}, {"measurement": "Stability", "setting": "[5]; refrigerated in a solubilized form", "value": "for at least six weeks"}, {"measurement": "adverse effects", "setting": "Sprague Dawley rats [6]; [9]", "value": "No dose related adverse effects"}, {"measurement": "clinical pathology (hematology, clinical chemistry)", "setting": "Sprague Dawley rats [6]; [9]", "value": "No dose related or sex related biologically meaningful treatment effects"}, {"measurement": "body weight gain and food consumption", "setting": "Sprague Dawley rats [6]; [10]", "value": "No significant differences"}, {"measurement": "mortality", "setting": "Sprague Dawley rats [6]; [10]", "value": "No mortality associated with drug application"}, {"measurement": "organ weight analysis", "setting": "Sprague Dawley rats [6]; daily topical 7, 700, 3500 μg, 13 weeks, versus control group", "value": "No treatment related differences"}, {"measurement": "overall conclusion, serious adverse effects", "setting": "Sprague Dawley rats [6]; daily topical application for 13 weeks, any of the dosages tested", "value": "did not cause any serious adverse effects"}]}]}
